This note sets out measurements from patent US12378500B2, “Liquid laundry product comprising a fragrance composition comprising isopulegol” (TAKASAGO INTERNATIONAL CORPORATION, priority 2016, dated 2025).

The subject of this assay is human brain. The experiment in a line: CNV (Contingent Negative Variation) method, inhalation of fragrance compositions by a panel of subjects. The format is in vivo. To be noted: 2 wt % isopulegol added to fragrance A; fragrance A as control; inhaled; panel of 7 subjects; FIG. 3. The protocol:
The stimulating effect of isopulegol was determined by the CNV (Contingent Negative Variation) method as described below and briefly summarized in FIGS. 1 and 2.
The CNV was measured using a digital electroencephalograph BIOSEMi (registered trademark). Electrodes for the CNV measurement were placed at Fp1, Fp2, F4, Fz, F3, T7, C3, Cz, C4, T8, P4, Pz, P3, O1, Oz, O2 according to the international 10-20 system, electrodes for ear lobes were set to indifferent electrodes, and brain waves were recorded at a time constant of 5.0 seconds referenced to the linked earlobes. In order to check artifacts of eye movement to a brain wave, vertical and horizontal movements of the left eye were also recorded.
Confirmation of a stimulative effect of a sample was conducted by steps of delivering a warning stimulus S1 (tone of 60-65 dB), followed 2300 ms later by a second stimulus S2 (light source). Test fragrance compositions were inhaled from jars disposed a few (e.g. 15-20) centimetres from the subjects' nose during each period of acquisition. […] The base line was determined from an average voltage of a brain wave in a time period of 500 ms before S1. The evaluation of the CNV waveform was conducted according to the method of Tori et al. (op. cit.), in which CNV was evaluated by the area (unit: ms×[…]) of an early component between 400 ms to 1,000 ms after the warning sound stimulus (S1).

For the compound `C=C(C)[C@@H]1CC[C@@H](C)C[C@H]1O` (racemic) [isopulegol], the “CNV activity (area under the curve) of fragrance A + isopulegol versus fragrance A alone” value was “enhances the CNV activity of fragrance A”.
